Experimental data: the supplement of paper PMC10307832

Tests used:
Test in all cases: relative viability (nuclei count vs DMSO), 5 days (fraction); higher = more cells survive
Quizartinib + Olaparib = compound: CC(C)(C)c1cc(NC(=O)Nc2ccc(-c3cn4c(n3)sc3cc(OCCN5CCOCC5)ccc34)cc2)no1 [Quizartinib] + O=C(c1cc(Cc2n[nH]c(=O)c3ccccc23)ccc1F)N1CCN(C(=O)C2CC2)CC1 [Olaparib] (partner 8 µM)
Procedure, shortened: (§1)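 The day after seeding in 1536-well plates, lung cancer cell lines were treated by pin tool with a single drug, or with a fixed anchor-drug dose together with five library-drug doses (not always all listed) in √10 steps. After 5 days, a combined fix-and-stain solution (final 0.05% Triton X-100, 1% formaldehyde, 1 ug/ml Hoechst) was added. Nuclei counted on 4× images gave relative viability as treated counts over vehicle counts, reported as the median of duplicate plates.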

YM155 + Bortezomib = compound: COCC[n+]1c2c(n(Cc3cnccn3)c1C)C(=O)c1ccccc1C2=O [YM155] + CC(C)C[C@H](NC(=O)[C@H](Cc1ccccc1)NC(=O)c1cnccn1)B(O)O [Bortezomib] (partner 0.002 µM)
Procedure, shortened: as §1

YM155 + Linsitinib = compound: COCC[n+]1c2c(n(Cc3cnccn3)c1C)C(=O)c1ccccc1C2=O [YM155] + C[C@]1(O)C[C@@H](c2nc(-c3ccc4ccc(-c5ccccc5)nc4c3)c3c(N)nccn32)C1 [Linsitinib] (partner 1 µM)
Procedure, shortened: as §1

Quizartinib + Alpelisib = compound: CC(C)(C)c1cc(NC(=O)Nc2ccc(-c3cn4c(n3)sc3cc(OCCN5CCOCC5)ccc34)cc2)no1 [Quizartinib] + Cc1nc(NC(=O)N2CCC[C@H]2C(N)=O)sc1-c1ccnc(C(C)(C)C(F)(F)F)c1 [Alpelisib] (partner 2 µM)
Procedure, shortened: as §1

Row | Cell Line | relative viability (Quizartinib + Olaparib; first compound 0.003162 µM) | relative viability (Quizartinib + Olaparib; first compound 0.01 µM) | relative viability (Quizartinib + Olaparib; first compound 0.03162 µM) | relative viability (Quizartinib + Olaparib; first compound 0.1 µM) | relative viability (YM155 + Bortezomib; first compound 0.002 µM) | relative viability (YM155 + Bortezomib; first compound 0.006325 µM) | relative viability (YM155 + Bortezomib; first compound 0.02 µM) | relative viability (YM155 + Bortezomib; first compound 0.06325 µM) | relative viability (YM155 + Linsitinib; first compound 0.002 µM) | relative viability (YM155 + Linsitinib; first compound 0.006325 µM) | relative viability (YM155 + Linsitinib; first compound 0.02 µM) | relative viability (YM155 + Linsitinib; first compound 0.06325 µM) | relative viability (Quizartinib + Alpelisib; first compound 0.001 µM) | relative viability (Quizartinib + Alpelisib; first compound 0.003162 µM) | relative viability (Quizartinib + Alpelisib; first compound 0.01 µM) | relative viability (Quizartinib + Alpelisib; first compound 0.03162 µM) | relative viability (Quizartinib + Alpelisib; first compound 0.1 µM) | relative viability (Quizartinib + Olaparib; first compound 0.001 µM)
1 | ChaGo-K-1 | 0.415 | 0.463 | 0.45 | 0.447 | 1.02 | 1.01 | 0.927 | 0.956 | – | – | – | – | – | – | – | – | – | –
2 | EBC-1 | 0.68 | 0.803 | 0.626 | 0.754 | 0.613 | 0.458 | 0.566 | 0.593 | 0.8 | 0.925 | 0.864 | 0.755 | 0.664 | 0.708 | 0.89 | 0.915 | 0.812 | 0.732
3 | EKVX | 0.821 | 0.886 | 0.904 | 1.01 | 0.955 | 0.934 | 1.08 | 0.984 | 0.958 | 1.09 | 1.04 | 0.697 | 0.799 | 0.841 | 0.924 | 0.914 | 0.973 | –
4 | EMC-BAC-2 | 0.441 | 0.524 | – | 0.536 | 1.03 | 1.08 | 1.04 | 1.06 | 0.85 | 0.83 | 0.597 | 0.818 | 0.695 | 0.696 | 0.762 | 0.766 | 0.73 | 0.468
5 | EPLC-272H | 0.635 | 0.861 | 0.658 | 0.434 | 0.846 | 1.04 | 0.875 | 0.862 | 1.22 | 1.19 | 1.1 | 1.06 | 0.667 | 1.04 | 0.95 | 0.969 | 1.06 | 0.946
6 | H3255 | 0.552 | 0.565 | 0.525 | 0.57 | 0.711 | 0.719 | 0.858 | 0.693 | 1.04 | 0.875 | 0.917 | 0.981 | 0.55 | 0.619 | 0.795 | 0.63 | 0.797 | 0.516
7 | HARA | 0.803 | 0.68 | 0.996 | 0.759 | 1.06 | 1.1 | 1.14 | 1.04 | 0.902 | 0.946 | 1.04 | 0.931 | 0.485 | 0.78 | 0.893 | 0.791 | 0.749 | 0.854
8 | HCC-15 | 0.685 | 0.676 | 0.641 | 0.69 | 0.939 | 1.02 | 0.965 | 0.953 | 0.809 | 0.627 | 0.872 | 0.798 | 0.833 | 0.881 | 0.941 | 0.884 | 0.787 | 0.684
9 | HCC-44 | 0.982 | 1.03 | 0.981 | 0.952 | 0.871 | 0.908 | 0.968 | 0.936 | 0.712 | 0.724 | 0.715 | 0.664 | 0.798 | 0.78 | 0.864 | 0.825 | 0.638 | 0.934
